{"source": "patent US7754243B2", "about": "“Aqueous suspension of nanoscale drug particles from supercritical fluid processing” (Clemson University Research Foundation, priority 2004, dated 2010)", "key": {"[1]": {"test": "Statistical analysis of SEM images of nanoparticles in the product aqueous suspension", "format": "physicochemical", "details": "for average nanoparticle size: Ibuprofen", "protocol": "A system similar to that illustrated in FIG. 1 was utilized to form aqueous suspensions of Ibuprofen particles. Specifically, a solution (0.25 mg/mL) of Ibuprofen (available from Sigma-Aldrich Corporation) in liquid carbon dioxide (high-purity, SFC grade obtained from Air Products Corporation) was prepared in the syringe pump 10. The solution was pushed through the heating unit 14 to reach the desired supercritical temperature of 40° C. before reaching the expansion nozzle 16. The rapid expansion was carried out at a pre-expansion pressure of 200 bar through a 50 μm orifice into an aqueous solution. A specimen of the product suspension was prepared for SEM imaging by depositing a few drops of the dilute nanoparticle aqueous suspension onto a carbon tape, followed by drying under ambient condition and then coating with platinum before imaging. SEM images were obtained on a Hitachi S-4700 Field-Emission SEM system."}, "[2]": {"test": "Stability of the product aqueous suspension against precipitation", "format": "physicochemical", "details": "for time until precipitation appeared in the suspension: receiving solution neat water", "protocol": "A system similar to that illustrated in FIG. 1 was utilized to form aqueous suspensions of Ibuprofen particles. Specifically, a solution (0.25 mg/mL) of Ibuprofen (available from Sigma-Aldrich Corporation) in liquid carbon dioxide (high-purity, SFC grade obtained from Air Products Corporation) was prepared in the syringe pump 10. The solution was pushed through the heating unit 14 to reach the desired supercritical temperature of 40° C. before reaching the expansion nozzle 16. The rapid expansion was carried out at a pre-expansion pressure of 200 bar through a 50 μm orifice into an aqueous solution. FIG. 2A is an SEM analysis of the precipitate obtained when the receiving solution in the expansion chamber 18 was neat water."}}, "data": [{"smiles": "CC(C)Cc1ccc(C(C)C(=O)O)cc1", "note": "(centres unmarked) [Ibuprofen]", "values": [{"measurement": "change in nanoparticle size on increase of drug loading and PVP concentration", "setting": "[1]; Ibuprofen loading 0.25 to 0.83 mg/mL, PVP concentration 0.5 to 3.3 mg/mL", "result": "no significant changes"}, {"measurement": "average size in diameter", "setting": "[1]; Ibuprofen nanoparticles, receiving solution aqueous PVP (Mw≈40,000), pre-expansion 40° C., 200 bar", "result": 40, "unit": "nm"}, {"measurement": "average size in diameter", "setting": "[1]; Ibuprofen nanoparticles, receiving solution aqueous SDS, 3.3 mg/mL", "result": 25, "unit": "nm"}, {"measurement": "average nanoparticle size", "setting": "[1]; PVP receiving solution, pre-expansion temperature 120° C.", "result": 52, "unit": "nm"}, {"measurement": "average nanoparticle size", "setting": "[1]; high-molecular weight PVP (Mw≈360,000)", "result": 30, "unit": "nm"}, {"measurement": "change in average particle size on variation of drug/polymer weight ratio", "setting": "[1]; PVP, drug/polymer weight ratio varied from 0.3 to 4 (Ibuprofen) or 0.3 to 2 (Naproxen)", "result": "no significant changes"}, {"measurement": "stability of product suspension", "setting": "[2]; receiving solution aqueous PVP (Mw≈40,000)", "result": "no sign of instability after several days"}, {"measurement": "stability of product suspension", "setting": "[2]; receiving solution aqueous SDS, 3.3 mg/mL", "result": "remained stable without precipitation"}, {"measurement": "time until precipitation appeared in the suspension", "setting": "[2]", "result": "≤ 15", "unit": "min"}]}, {"smiles": "COc1ccc2cc([C@H](C)C(=O)O)ccc2c1", "note": "[Naproxen]", "values": [{"measurement": "average size in diameter", "setting": "[1]; Naproxen nanoparticles, 2 wt % methanol co-solvent, receiving solution 0.5 mg/mL PVP (Mw≈40,000)", "result": 64, "unit": "nm"}, {"measurement": "time until precipitation appeared in the suspension", "setting": "[2]", "result": "≤ 15", "unit": "min"}]}]}
